Measurements as given in patent US5780481A, “Method for inhibiting activation of the human A3 adenosine receptor to treat asthma” (Merck & Co., Inc., priority 1996, dated 1998).

Legend:
[1] = test system: hamster cheek pouch arterioles; test: Vascular constriction in hamster cheek pouch arterioles; set-up: species or system Golden hamster
Experimental: Adenosine, inosine, cromolyn, compound 48/80, methylene blue, acetylcholine, and components for saline solutions used to bathe arterioles are obtained from Sigma. 8(p-sulphophenyl)theo-phylline was obtained from Research Biochemicals, Inc. (Natick, Mass.).
Arterioles (luminal diameter approximately 60 μm) are dissected from male Golden hamster cheek pouches, transferred to a 37° C. tissue chamber, and cannulated at both ends (see Duling et al., Am. J. Physiol., (241) (Heart Circ. Physiol., (10) pp. H108-H116 (1981); Duling et al., Microcirculatory Technology, edited by C. H. Baker and W. G. Nastuk, Orlando Academic Press, pp. 265-280 (1986)). Changes in luminal diameter in response to abluminal delivery of adenosine (10^-8 M to 10^-4 M) are measured using videotaped microscopic observation and video calipers with continuous output, to generate cumulative concentration-response curves.
Examination of the abluminal surface of the vessel after staining with methylene blue reveal large numbers of mast cells closely associated with the vessel wall.

[2] = biological target: T1, human A1 adenosine receptor (Homo sapiens, UniProt P30542); test: Radioligand binding assay, A1 receptor; conditions: [3H]-cyclohexyladenosine (CHA); membranes of transfected COS7 cells; read-out: IC50, inhibition of specific radioligand binding to A1 receptor
T1 construct: expressed in transfected cells; host or cells: COS7 cells (transient transfection), membranes
T1 sequence (P30542 1-326): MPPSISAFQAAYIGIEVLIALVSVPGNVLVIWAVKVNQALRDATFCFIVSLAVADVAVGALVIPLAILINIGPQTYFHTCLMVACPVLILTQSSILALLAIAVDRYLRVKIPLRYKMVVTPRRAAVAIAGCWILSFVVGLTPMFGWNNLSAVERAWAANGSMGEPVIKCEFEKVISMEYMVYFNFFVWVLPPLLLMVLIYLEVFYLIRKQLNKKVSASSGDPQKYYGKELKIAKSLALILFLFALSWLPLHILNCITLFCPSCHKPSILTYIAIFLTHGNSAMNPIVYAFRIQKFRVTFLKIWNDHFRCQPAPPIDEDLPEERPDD
From the text: (§1) The human A1, A2a, A2b and A3 receptor subtype cDNAs were subcloned into the expression vectors pSVL (Pharmacia, Columbus, Ohio), CMV5 (Mumby, et al., PNAS, (87) pp. 728-732 (1990)) pCDNA1 or pREP (Invitrogen). Transient expression in COS7 cells (monkey kidney cell line, ATCC CRL 1651, ATCC, Rockville, Md.) (Doyl et al. WO 95/11681) was accomplished by transfection of the cloned adenosine receptor cDNAs under the control of the SV40 promoter into mammalian cells, such as COS7. Membranes prepared from the transfected cells were utilized for the determination of binding affinity, selectivity and specificity of the human adenosine receptors for various ligands. […]
(§2) Membranes prepared from transfected COS7 cells were utilized in a binding assay to measure the affinity of agonists and antagonists on the human adenosine receptors. […] Bound radioactivity was measured by scintillation counting. Binding data were analyzed by the use on nonlinear regression curve fitting program Graph Pad InPlot, Version 3.0 (Graph Pad Software, San Diego). Ki values were calculated using the Cheng-Prusoff derivation (Cheng, Y. C. and Prusoff, H. R. (1973) Biochem. Pharmacol. 22, 3099-3108). […] Nonselective binding was determined with 1 μM I-ABA for A1 and A3 receptors and 10 μM NECA for A2a receptors. Activity on A2b receptor subtypes was measured in the cAMP accumulation assay described below. […]

[3] = biological target: T2, human A2a adenosine receptor (Homo sapiens, UniProt P29274); test: Radioligand binding assay, A2a receptor; conditions: [3H]-CGS21680; membranes of transfected COS7 cells; read-out: IC50, inhibition of specific radioligand binding to A2a receptor
T2 construct: expressed in transfected cells; host or cells: COS7 cells (transient transfection), membranes
T2 sequence (P29274 whole entry): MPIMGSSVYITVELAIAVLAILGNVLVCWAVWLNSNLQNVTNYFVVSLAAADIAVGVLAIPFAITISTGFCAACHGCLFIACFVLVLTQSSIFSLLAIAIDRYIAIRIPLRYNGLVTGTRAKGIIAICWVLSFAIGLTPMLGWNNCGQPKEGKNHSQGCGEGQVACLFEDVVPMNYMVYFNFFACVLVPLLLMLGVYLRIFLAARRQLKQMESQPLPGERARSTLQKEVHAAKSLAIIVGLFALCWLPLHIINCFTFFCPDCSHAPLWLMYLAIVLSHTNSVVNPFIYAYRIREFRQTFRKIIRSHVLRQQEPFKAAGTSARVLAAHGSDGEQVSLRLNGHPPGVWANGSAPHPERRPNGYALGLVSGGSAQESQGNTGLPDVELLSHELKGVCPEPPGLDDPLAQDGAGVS
From the text: as §1, §2

[4] = biological target: T3, human A2b adenosine receptor (Homo sapiens, UniProt P29275); test: cAMP accumulation via A2b receptors; format: cell-based; conditions: at 10 μM; stably transfected CHO cells; adenosine (10 μM) induced
T3 construct: cAMP accumulation induced by adenosine
T3 sequence (P29275 1-332): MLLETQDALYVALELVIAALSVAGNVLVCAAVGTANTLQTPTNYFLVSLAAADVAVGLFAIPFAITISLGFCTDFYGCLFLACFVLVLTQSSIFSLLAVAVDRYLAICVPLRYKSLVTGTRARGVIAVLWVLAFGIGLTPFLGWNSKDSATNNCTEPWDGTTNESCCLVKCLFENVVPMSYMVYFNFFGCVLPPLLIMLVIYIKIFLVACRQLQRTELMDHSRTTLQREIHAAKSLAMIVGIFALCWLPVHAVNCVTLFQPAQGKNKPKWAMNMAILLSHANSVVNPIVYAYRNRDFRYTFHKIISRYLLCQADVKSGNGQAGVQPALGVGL

[5] = biological target: T4, human A3 adenosine receptor (Homo sapiens, UniProt P0DMS8); test: Radioligand binding assay, A3 receptor; conditions: [3H]-NECA or [125I]-ABA; membranes of transfected COS7 cells; read-out: IC50, inhibition of specific radioligand binding to A3 receptor
T4 construct: expressed in transfected cells
T4 sequence (P0DMS8 1-318): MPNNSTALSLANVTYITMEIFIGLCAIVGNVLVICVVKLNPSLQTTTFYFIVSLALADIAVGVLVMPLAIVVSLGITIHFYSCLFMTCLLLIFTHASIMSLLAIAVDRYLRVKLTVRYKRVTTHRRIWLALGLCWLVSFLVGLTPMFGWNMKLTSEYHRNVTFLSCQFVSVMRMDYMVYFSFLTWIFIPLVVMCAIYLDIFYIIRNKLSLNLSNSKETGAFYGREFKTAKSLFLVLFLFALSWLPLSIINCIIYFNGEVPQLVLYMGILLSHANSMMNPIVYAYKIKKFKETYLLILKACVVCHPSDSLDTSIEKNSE
Experimental: Membranes prepared from transfected COS7 cells were utilized in a binding assay to measure the affinity of agonists and antagonists on the human adenosine receptors. […] Bound radioactivity was measured by scintillation counting. Binding data were analyzed by the use on nonlinear regression curve fitting program Graph Pad InPlot, Version 3.0 (Graph Pad Software, San Diego). […] The affinities of agonists and antagonists on human adenosine receptor subtypes were measured in competition binding assays using the radiolabeled adenosine agonists, [^3 H]-cyclo-hexyladenosine (CHA) for A1 receptors, [^3 H]-CGS21680 (2-(p-(2-carboxyethyl)-phenylamino)-5'-N-ethyl-carboxamidoadenosine) for A2a receptors and, [^3 H]-5'-N-ethylcarboxamido adenosine ([^3 H]-NECA), or [^125 I]-N^6 -aminobenzyl adenosine (^125 I-ABA) for A3 receptors. Nonselective binding was determined with 1 μM I-ABA for A1 and A3 receptors and 10 μM NECA for A2a receptors. […]

[6] = biological target: T4, human A3 adenosine receptor; test: cAMP accumulation assay, A3 receptors stably expressed on CHO cells (FIG. 1); format: cell-based
Experimental: The changes in cAMP accumulation were measured in stably transfected CHO cells expressing the human adenosine receptor subtypes. CHO cells were washed twice in phosphate buffered saline (PBS) and detached in 0.2% EDTA in PBS. After pelleting at 800 rpm for 10 min, cells were resuspended in KRH buffer (140 mM NaCl/5 mM KCl/2 mM CaCl2 /1.2 mM MgSO4 /1.2 mM KH2 PO4 /6 mM glucose/25 mM Hepes buffer, pH 7.4), washed once in KRH buffer and resuspended at 10^7 cells/mL. The cell suspension (100 μL) was mixed with 100 μL of KRH buffer containing 200 μM of the phosphodiesterase inhibitor Ro 20-1724 and incubated at 37° C. for 15 minutes. Antagonists were preincubated for 10 minutes before adding 5 μM forskolin and 60 μM adenosine. After 10 minutes, 400 μL of 100 mM acetic acid was added and the sample was boiled for 5 minutes. The supernatant was recovered by centrifugation for 15 minutes and cAMP levels were determined by radioimmunoassay ([…] kit, DuPont/NEN) using the acetylation protocol.

[7] = test system: canine A3 adenosine receptors; test: Affinity for canine A3 adenosine receptors; format: binding
myocardial infarct = test: Reduction of myocardial infarct size in anesthetized dogs; format: in vivo, dog
Experimental: The effect of antagonist compound IV, with high affinity for canine A3 adenosine receptors, on myocardial infarct size is compared to a vehicle-treated control group in barbital-anesthetized dogs subjected to 90 minutes of left anterior descending coronary artery occlusion followed by 3 hours of reperfilsion. Vehicle (5 μM NaOH in isotonic saline) or antagonist are infused at a rate of 1 ml/min directly into the left anterior descending coronary artery distal to the occlusion site beginning 10 minutes before occlusion and are continued throughout the entire ischemic period. The myocardial region at risk and infarct size are determined by the triphenyltetrazolium histochemical technique and regional myocardial blood flow by radioactive microspheres. Coronary sinus LDH activity and histamine concentrations were measured at various times throughout the experiments and myeloperoxidase activity was determined at the conclusion of the experiments as an index of neutrophil infiltration into the ischemic-reperfused mycocardium. Ten dogs were included in this preliminary study, 4 in the vehicle-treated group and 6 in the antagonist treated group.

asthmatics = asthmatics but not nonasthmatics; cited from earlier work
[8] = test system: mast cells isolated from rat peritoneum; conditions: cited from earlier work
[9] = test system: ischemic reperfused myocardium; conditions: in vivo; cited from earlier work

Structure (SMILES): Cn1c(=O)c2[nH]c(-c3ccc(S(=O)(=O)O)cc3)nc2n(C)c1=O [8(p-sulfophenyl) theophylline]
- effect on adenosine-induced constriction ([1]; pretreatment 100 μM): did not alter the constriction
- effect on adenosine-induced dilator responses ([1]; pretreatment 100 μM): inhibited the dilator responses

Structure (SMILES): COC(=O)C1=C2C=CN(C)C=C2c2nc(-c3ccccc3)nn2C1 [Compound IV]
- IC50 [2]: 5.3 µM
- IC50 [3]: 27.5 µM
- IC50, cAMP accumulation via A2b receptors [4]: inactive
- IC50 [5]: 0.013 µM
- effect on inhibition of cAMP accumulation resulting from adenosine activation of A3 receptors ([6]; 10 μM compound IV, forskolin induced cAMP): prevents the inhibition of cAMP accumulation
- effect on basal cAMP levels ([6]; basal): no effect
- effect on levels of cAMP accumulated with forskolin alone ([6]; forskolin alone): no effect
- affinity for canine A3 adenosine receptors [7]: high affinity
- myocardial infarct size (myocardial infarct; 90 min LAD occlusion, 3 h reperfusion, intracoronary infusion, vs vehicle): effectively reduces myocardial infarct size
- hemodynamics and regional myocardial blood flow in non-ischemic left circumflex coronary artery region (myocardial infarct; at baseline or during occlusion, between groups): not different between groups
- myeloperoxidase activity (myocardial infarct; between the two groups, end of experiment): not different between the two groups
- arrhythmias (myocardial infarct; during occlusion and reperfusion, all animals): arrhythmias are encountered
- coronary sinus LDH activity (myocardial infarct; during reperfusion): reduced
- coronary sinus histamine concentrations (myocardial infarct; during reperfusion): reduced
- dP/dt (myocardial infarct; during reperfusion): significantly improved
- left anterior descending coronary artery blood flow (myocardial infarct; during reperfusion): significantly decreased
- myeloperoxidase activity in infarcted tissue (myocardial infarct; infarcted tissue, end of experiment): tendency for reduced activity
- collateral blood flow (myocardial infarct; ischemic-reperfused region, during occlusion, particularly subepicardial): slightly greater
- ventricular fibrillation requiring cardioversion (myocardial infarct; some dogs from each group): some dogs from each group progress to ventricular fibrillation requiring cardioversion

Structure (SMILES): Nc1ncnc2c1ncn2[C@@H]1O[C@H](CO)[C@@H](O)[C@H]1O [adenosine]
- constrictor response of arterioles ([1]; 10^-6 M adenosine, abluminal): elicited an intense, transient constriction
- dilator response of arterioles ([1]; concentrations higher than 10^-6 M adenosine): induced dilator responses
- mast cell degranulation on abluminal vessel surface ([1]; following exposure to adenosine, methylene blue staining): mast cells are found to be degranulated
- bronchoconstriction (asthmatics): produce bronchoconstriction in asthmatics but not in nonasthmatics
- release of granule contents from mast cells [8]: potentiates the release of granule contents

Structure (SMILES): N#Cc1cc(NC(=O)C(=O)O)c(Cl)c(NC(=O)C(=O)O)c1 [lodoxamide]
- myocardial ischemic injury [9]: reduces myocardial ischemic injury
